# Earlier results in US10610489B2, “Pharmaceutical composition, pharmaceutical dosage form, process for their preparation, methods for treating and uses thereof” (Boehringer Ingelheim International GmbH, priority 2009, dated 2020).
# Tested on: HbA1c
# Conditions: metformin on its own, in the diabetic
smiles,measurement,value
"CN(C)C(=N)N=C(N)N [metformin, dimethyldiguanide]",average improvement in the HbA1c value,1.0-1.5%
